{"source": "patent US20260117192A1", "about": "“METHODS OF PRODUCING A TUMOR AVATAR” (ARIEL SCIENTIFIC INNOVATIONS LTD., priority 2023, published 2026)", "key": {"[1]": {"tested_on": "gastric cancer organoids", "assay": "Drug cytotoxicity, CellTiter-Glo cell viability and bright field images, organoids", "assay_type": "cell-based, human", "details": "for cell death: targeted drugs at concentrations found in peripheral blood (crizotinib 1 μM, osimertinib 0.8 μM, afatinib 0.150 μM); for effect on viability: targeted drugs, 72 hours (dasatinib 0.180 μM, gefitinib 3 μM, imatinib 4 μM, capmatinib 8 μM)", "experimental": "(§1) Organoids and stroma cells isolation and culture: Human gastric cancer along with surrounding normal tissue were obtained from a consenting patient undergoing surgery at Ichilov Hospital, with approval from the Institutional Review Board. The samples were transported in cold hypothermosol medium and processed within 24 hours post-surgery. Upon acquisition, the tumor tissue was divided into three equal parts for various analyses. One third was snap-frozen for subsequent DNA isolation, another third was fixed in 4% paraformaldehyde for histological examination, and the remaining portion was prepared for cell culture. The tissue underwent digestion using Collagenase I (1 mg/ml), Liberase, and DNAse (10 ug/ml), followed by separation into organoids and stroma cell cultures. Organoids were cultured as previously described hereinbelow, with medium replacement twice weekly and passaging via mechanical and enzymatic dissociation using TrypLE enzyme. Stroma cells were cultured in mesenchymal stem cell medium (MSCM) on pre-coated Matrigel (20%) and fibronectin (2 μg/cm2) 4-well dish plates. Upon reaching 80% confluency the cells were subculturing using accutase to 6 well plate and then to 25 cm flask. From passage 3 onwards, cells were sub-cultured in 25 cm flask and then in 75 cm flasks using MSCM, endothelial cell medium (ECM), or fibroblast medium (FM-2) for subsequent passages. Bright field images were obtained using Operetta High Content Screening System or Leica microscope.\n(§2) Cell viability assay: To assess co-culture growth rates and the cytotoxic effects of various drugs, a luminescent cell viability assay was conducted using the CellTiter-Glo kit from Promega following the manufacturer's guidelines. For the drug cytotoxicity assay, co-cultures or organoids were seeded in 384-well plates and allowed to organize for 48 hours. […] The chosen drug concentrations were based on their higher plasma concentration values. Following treatment, each well containing co-cultures or organoids was lysed using CellTiter-Glo reagents, thoroughly mixed, and incubated for 30 minutes, after which luminescence was measured."}, "[2]": {"tested_on": "ECM:FM2:ORG co-cultures (TECs:TASCs:Org)", "assay": "Drug cytotoxicity, CellTiter-Glo cell viability and bright field images, organoid-stroma cell co-cultures", "assay_type": "cell-based, human", "details": "for effect on viability: co-culture, targeted drugs, 72 hours (afatinib 0.150 μM, osimertinib 0.8 μM, dasatinib 0.180 μM, gefitinib 3 μM, imatinib 4 μM, capmatinib 8 μM)", "experimental": "Organoid-stroma cells co-culture: Initially, organoids were mechanically dissociated into smaller fragments through pipetting, followed by enzymatic digestion into single cells using dispase II at 37° C. for 20 minutes. Concurrently, stroma cells cultured in FM-2, ECM, and MSCM, as well as Huvec cells cultured in ECM, were harvested at 80% confluency in the flask and dissociated using accutase. In certain experiments, after cells dissociation, each cell population was stained with a vital dye before their co-culture. Cells cultured in ECM and Huvec cell lines were stained blue using the CellTrace Violet Dye Proliferation Kit. […] Imaging was performed at 10× magnification using an Olympus Confocal Microscope. Subsequently, dissociated cells were mixed in 35 ul of co-culture medium, at ratios of 1:1:1, 1:4:1, 4:1:1 and 1:1:4 of Huvec or cells cultured in ECM, cells cultured in FM2 and organoids respectively. Co-cultures composed of ECM:organoids (ORG), FM2:ORG, and Huvec:ORG were also created at 1:1, 1:4, and 4:1 ratios, respectively. Each mix, containing 4000 cells, was then co-cultured in 384 wells low repellent plates, with DMEM/F12 medium supplemented with 10 mM HEPES, abam, 2 mM glutamax, non-essential amino acids, sodium pyruvate, 500 ng ml-1 R-spondin, 100 ng ml-1 noggin, 100 ng ml-1 Wnt3A, 10 nM gastrin, Prostaglandin E2, 100 ng ml-1 IGF1, 10 ng·ml-1 FGF2, 10 ng·ml-1 FGF10, 50 ng·ml-1 EGF, B27, 0.5 μM A 83-01, 4 mM nicotinamide, 10 μM Y-27632, 1 μg ml-1 hydrocortisone, 50 μg ml-1 ascorbic acid, 5 ng ml-1 VEGF and 100 ng ml-1 IL-6, 4 μg ml-1 heparin, and 5% fetal calf serum in 10 ng·ml-1 and fibronectin and 5% Matrigel as scaffold and incubated in 5% CO2 at 37° C. for different intervals of time.\nas §2"}, "[3]": {"tested_on": "stroma cell monocultures", "assay": "Drug cytotoxicity, CellTiter-Glo cell viability, stroma cell monocultures", "assay_type": "cell-based, human", "details": "stroma cells monocultures, targeted drugs, 72 hours (dasatinib 0.180 μM, imatinib 4 μM, capmatinib 8 μM)", "experimental": "as §1, with “Stroma cells were cultured in mesenchymal stem cell medium (MSCM) on pre-coated Matrigel (20%) and fibronectin (2 μg/cm2) 4-well dish plates. Upon reaching 80% confluency the cells were subculturing using accutase to 6 well plate and then to 25 cm flask. From passage 3 onwards, cells were sub-cultured in 25 cm flask and then in 75 cm flasks using MSCM, endothelial cell medium (ECM), or fibroblast medium (FM-2) for subsequent passages. Bright field images were obtained using Operetta High Content Screening System or Leica microscope.” left out\n(§3) Cell viability assay: To assess co-culture growth rates and the cytotoxic effects of various drugs, a luminescent cell viability assay was conducted using the CellTiter-Glo kit from Promega following the manufacturer's guidelines. […] Following treatment, each well containing co-cultures or organoids was lysed using CellTiter-Glo reagents, thoroughly mixed, and incubated for 30 minutes, after which luminescence was measured."}, "[4]": {"tested_on": "pancreas organoids", "assay": "Celltiter-Glo viability of drug treated pancreas organoids", "assay_type": "cell-based, human", "details": "72 hours treatment", "experimental": "(§4) FIGS. 10A-10B: (10A) Representative immunofluorescence and brightfield images of human pancreas tumor avatar composed of Huvec endothelial cells, Org and TASCs mix at a 1:1:1, 1:4:1 or 4:1:1 ratio, respectively cultivated in a Matrigel (5%) and fibronectin scaffold (10 ng/ml), during 6 days. Org were stained with Cell Vue Claret far red fluorochrome (purple cells). Cell viability was assessed by Calcein (green)/PI (red) staining and images were acquired with Operetta Imager at 5× magnification. (10B) Line graphs showing relative light unit percentage (RLU %) of everolimus or FOLFOX treated pancreas tumor avatars and organoids as compared with their respective vehicle controls, after the same day of drug or vehicle exposure, (RLU %=RLUtreatment*100)/RLUveh). Tumor avatars were cultured for 3 days, treated with the specified drugs for other 72 hours and viability determined by Celltiter-Glo assay.\n(§5) Next, the inventors aimed to examine a tumor avatar model, composed of pancreas tumor epithelial cells, TASCs and Huvec cells, cultured in the presence of a Matrigel and fibronectin scaffold. Huvec, TASCs and […] organoid-derived tumor epithelial cells clusters (5-15 cells/cluster) were seeded at different ratios (1:1:1, 1:4:4 or 4:1:4 respectively) and cultured for 6 days. Tumor cells, labelled with CellVue Claret far red fluorochrome localized in the interior of the tumor avatar."}, "[5]": {"tested_on": "human pancreas tumor avatar", "assay": "Celltiter-Glo viability of drug treated pancreas tumor avatars", "assay_type": "cell-based", "details": "pancreas tumor avatars (Huvec, TASCs, Org), cultured 3 days, treated 72 hours", "experimental": "as §4, §5"}, "[6]": {"tested_on": "HUVEC:FM-2:ORG co-cultures", "assay": "Drug cytotoxicity, CellTiter-Glo cell viability, co-cultures containing Huvec cells", "assay_type": "cell-based, human", "details": "paclitaxel 5 μM, 72 hours", "experimental": "Organoid-stroma cells co-culture: Initially, organoids were mechanically dissociated into smaller fragments through pipetting, followed by enzymatic digestion into single cells using dispase II at 37° C. for 20 minutes. Concurrently, stroma cells cultured in FM-2, ECM, and MSCM, as well as Huvec cells cultured in ECM, were harvested at 80% confluency in the flask and dissociated using accutase. In certain experiments, after cells dissociation, each cell population was stained with a vital dye before their co-culture. Cells cultured in ECM and Huvec cell lines were stained blue using the CellTrace Violet Dye Proliferation Kit. […] Imaging was performed at 10× magnification using an Olympus Confocal Microscope. Subsequently, dissociated cells were mixed in 35 ul of co-culture medium, at ratios of 1:1:1, 1:4:1, 4:1:1 and 1:1:4 of Huvec or cells cultured in ECM, cells cultured in FM2 and organoids respectively. […]\nas §3"}, "[7]": {"tested_on": "human gastric tumor avatars in the presence of lymphocytes", "assay": "Cell-Titer Glo viability of gastric tumor avatars with peripheral blood lymphocytes", "assay_type": "cell-based", "details": "avatars of patient 1 and patient 2 with autologous lymphocytes, various concentrations, 72 hours", "from_the_text": "FIGS. 12A-12F: (12A) Representative brightfield images of human gastric tumor avatars from a patient with gastrointestinal sarcoma (patient 1) and a second patient (patient 2) with gastric adenocarcinoma, composed of organoids and stroma cells. Cells were dissociated from gastric tissue and cultured in a Matrigel dome in an adherent plate in tumor avatar medium from day 0. After 7 days of culture, organoids remain in the dome and stroma cells and metastatic tumor cells invaded the tissue culture plate outside the dome. […] (12B) Representative brightfield images of defrosted human gastric tumor avatars from defrosted tumor avatars. The tumor avatars were sub-cultured in a Matrigel dome using an adherent plate in the presence of tumor avatar medium from day 3 to day 13. […] (12C-12D). Representative brightfield images of human gastric tumor avatars from a patient with gastrointestinal sarcoma (patient 1) and a second patient (patient 2) with gastric adenocarcinoma, composed of organoids and stroma cells. […] Cell viability was detected after 72 hours of treatment using Cell-Titer Glo assay.\nLymphocytes were isolated from the peripheral blood of patient 1 and patient 2. […] Pembrolizumab was added at various concentrations to the tumor avatars and cell viability was monitored for 72 hours after treatment using the Cell-Titer Glo assay."}, "[8]": {"tested_on": "patient 1 (gastrointestinal sarcoma) and patient 2 (gastric adenocarcinoma)", "assay": "Administration to the patients", "assay_type": "in vivo, human", "details": "both patients"}}}
{"molecule": "CN(C)C/C=C/C(=O)Nc1cc2c(Nc3ccc(F)c(Cl)c3)ncnc2cc1O[C@H]1CCOC1", "note": "[afatinib]", "values": [{"measurement": "cell death", "setting": "[1]; organoids, 72 hours", "result": "approximately 50%"}]}
{"molecule": "CNC(=O)c1ccc(-c2cnc3ncc(Cc4ccc5ncccc5c4)n3n2)cc1F", "note": "[capmatinib]", "values": [{"measurement": "effect on viability", "setting": "[1]; organoids", "result": "neither the organoids nor the co-culture showed significant response"}, {"measurement": "effect on viability", "setting": "[2]", "result": "neither the organoids nor the co-culture showed significant response"}, {"measurement": "effect on viability", "setting": "[3]", "result": "decreased viability"}]}
{"molecule": "C[C@@H](Oc1cc(-c2cnn(C3CCNCC3)c2)cnc1N)c1c(Cl)ccc(F)c1Cl", "note": "[crizotinib]", "values": [{"measurement": "cell death", "setting": "[1]; organoids, 72 hours", "result": "more than 50%"}, {"measurement": "cell death", "setting": "[2]; stroma cells-organoid co-cultures, crizotinib 1 μM, 72 hours", "result": "more than 50%"}]}
{"molecule": "CO[C@H]1C[C@@H]2CC[C@@H](C)[C@@](O)(O2)C(=O)C(=O)N2CCCC[C@H]2C(=O)O[C@H]([C@H](C)C[C@@H]2CC[C@@H](OCCO)[C@H](OC)C2)CC(=O)[C@H](C)/C=C(\\C)[C@@H](O)[C@@H](OC)C(=O)[C@H](C)C[C@H](C)/C=C/C=C/C=C/1C", "note": "[everolimus]", "values": [{"measurement": "effect of treatment on viability (RLU %)", "setting": "[4]", "result": "neither the organoids nor the tumor avatar models were affected"}, {"measurement": "effect of treatment on viability (RLU %)", "setting": "[5]", "result": "neither the organoids nor the tumor avatar models were affected"}]}
{"molecule": "COc1cc2ncnc(Nc3ccc(F)c(Cl)c3)c2cc1OCCCN1CCOCC1", "note": "[gefitinib]", "values": [{"measurement": "effect on viability", "setting": "[1]; organoids", "result": "neither the organoids nor the co-culture showed significant response"}, {"measurement": "effect on viability", "setting": "[2]", "result": "neither the organoids nor the co-culture showed significant response"}]}
{"molecule": "Cc1ccc(NC(=O)c2ccc(CN3CCN(C)CC3)cc2)cc1Nc1nccc(-c2cccnc2)n1", "note": "[imatinib]", "values": [{"measurement": "effect on viability", "setting": "[1]; organoids", "result": "neither the organoids nor the co-culture showed significant response"}, {"measurement": "effect on viability", "setting": "[2]", "result": "neither the organoids nor the co-culture showed significant response"}, {"measurement": "effect on viability", "setting": "[3]", "result": "decreased viability"}]}
{"molecule": "C=CC(=O)Nc1cc(Nc2nccc(-c3cn(C)c4ccccc34)n2)c(OC)cc1N(C)CCN(C)C", "note": "[osimertinib]", "values": [{"measurement": "cell death", "setting": "[1]; organoids, 72 hours", "result": "approximately 50%"}, {"measurement": "effect on viability", "setting": "[2]", "result": "resistant"}]}
{"molecule": "CC(=O)O[C@H]1C(=O)[C@@]2(C)[C@H]([C@H](OC(=O)c3ccccc3)[C@]3(O)C[C@H](OC(=O)[C@H](O)[C@@H](NC(=O)c4ccccc4)c4ccccc4)C(C)=C1C3(C)C)[C@]1(OC(C)=O)CO[C@@H]1C[C@@H]2O", "note": "[paclitaxel]", "values": [{"measurement": "cytotoxicity at 5 µM", "setting": "[1]; Homo sapiens, 72 h, read-out: decrease in cell viability", "result": 53, "unit": "%"}, {"measurement": "size and integrity in bright field images", "setting": "[1]; organoids, paclitaxel 5 μM, 72 hours", "result": "reduced the size and affected the integrity"}, {"measurement": "cell death", "setting": "[2]; TECs:TASCs:Org ratio 1:1:4, paclitaxel 5 μM, 72 hours", "result": 22, "unit": "%"}, {"measurement": "cell death", "setting": "[2]; TECs:TASCs:Org ratios 1:1:1, 4:1:1 and 1:4:1, paclitaxel 5 μM, 72 hours", "result": "approximately 40%"}, {"measurement": "size and integrity in bright field images", "setting": "[2]; co-cultures, paclitaxel 5 μM, 72 hours", "result": "reduced the size and affected the integrity"}, {"measurement": "cell death", "setting": "[6]", "result": "approximately 10%"}]}
{"molecule": "Pembrolizumab: Pembrolizumab immunotherapy", "values": [{"measurement": "effectiveness (cell viability)", "setting": "[7]", "result": "effective"}, {"measurement": "patient response", "setting": "[8]", "result": "both respond"}]}
